According to patent USRE39616E1, “Aminoindan derivatives” (priority 1996, dated 2007):
Counter-ions that a name gives are not always drawn.

Experiments:
[1] = test system: Middle Cerebral Artery Occlusion (MCA-O) in Male Wistar Rats; settings: rat, in vivo
MAO-B = molecular target: T1, MAO-B (Rattus norvegicus, UniProt P19643); test: Inhibition of MAO activity following sub-acute administration to rats; format: in vivo; parameters: from tissue; host or cells: rat brain, liver and intestine; settings: sc, read-out: % MAO-B inhibition, Intestine, dose head prints 25 mg/kg (6 mg/kg sc) daily for 14 days
T1 sequence (P19643 1-520): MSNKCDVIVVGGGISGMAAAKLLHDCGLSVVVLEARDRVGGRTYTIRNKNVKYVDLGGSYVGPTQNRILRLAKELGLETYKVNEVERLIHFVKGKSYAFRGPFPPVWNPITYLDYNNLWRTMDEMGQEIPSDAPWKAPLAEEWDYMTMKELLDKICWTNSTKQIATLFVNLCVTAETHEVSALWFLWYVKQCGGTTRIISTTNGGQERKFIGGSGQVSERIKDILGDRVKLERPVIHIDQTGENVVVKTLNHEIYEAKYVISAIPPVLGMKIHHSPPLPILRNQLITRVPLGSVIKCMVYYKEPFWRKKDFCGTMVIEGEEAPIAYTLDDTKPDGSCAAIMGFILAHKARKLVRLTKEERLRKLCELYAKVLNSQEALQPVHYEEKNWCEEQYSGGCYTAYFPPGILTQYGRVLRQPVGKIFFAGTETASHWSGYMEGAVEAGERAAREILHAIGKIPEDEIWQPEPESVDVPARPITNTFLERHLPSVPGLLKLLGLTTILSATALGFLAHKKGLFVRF
Method: Substrate concentrations used were 50 μM (PEA) and 1 mM (5-HT).
Male Sabra mice, weighing 45-50 g were injected with test compound solutions (prepared in 0.9% saline). Each dose was administered to two or three mice. The mice were sacrificed two hours after drug administration or at a time corresponding to the peak AChE inhibition time (see Table 11). The brain and liver were rapidly dissected and stored in appropriate vials on ice. The tissues were weighed, diluted to ½ in sucrose 0.3M and stored at −20° C. before performance of the MAO assay described above. The results given in Table 11 relate to measurements made on brain tissue only.
Experiments were done in Sprague Dawley male rats. […] At the end of this period animals were sacrificed and MAO levels determined in the brain, liver and intestines.

| SMILES | Volume infarction Mean ± SD [1] | inhibition at 6 mg/kg (MAO-B) |
| --- | --- | --- |
| C#CCNC1CCc2ccc(OC(=O)N(C)CC)cc21 (stereo not drawn) [Compound 25, 6-(N-Me, N-Etcarbamyloxy) N-propargyl aminoindan, HCl] | 189 ± 54 mm* | – |
| C#CCNC1CCc2ccc(OC(=O)N(C)C)cc21 (stereo not drawn) [Compound 24, 6-(N,N-Dimethylcarbamyloxy)-N-propargyl aminoindan mesylate] | 152 ± 45 mm* | 0% |
